# How the values were obtained:
# Conditions in all cases: 72 h
# Caco-2 [1] = experiment: relative viability EC50 (midpoint between 100% and the lowest measured viability); higher = less toxic
# Vero E6 [2] = experiment: as above
# U2OS [3] = experiment: as above
# HepG2 [4] = experiment: as above
# Calu-3 [5] = experiment: as above
# Caco-2 [6] = experiment: drug sensitivity score (DSS) for viability; higher = more toxic; extreme values may be limits of the assay
# Vero E6 [7] = experiment: as above
# U2OS [8] = experiment: as above
# HepG2 [9] = experiment: as above
# Calu-3 [10] = experiment: as above
# Caco-2 [11] = experiment: cell viability relative to DMSO; higher = less toxic
# Vero E6 [12] = experiment: as above
# U2OS [13] = experiment: as above
# HepG2 [14] = experiment: as above
# Calu-3 [15] = experiment: as above
Structure (SMILES),relative viability EC50 (Caco-2 [1]) [µM],relative viability EC50 (Vero E6 [2]) [µM],relative viability EC50 (U2OS [3]) [µM],relative viability EC50 (HepG2 [4]) [µM],relative viability EC50 (Calu-3 [5]) [µM],drug sensitivity score (Caco-2 [6]),drug sensitivity score (Vero E6 [7]),drug sensitivity score (U2OS [8]),drug sensitivity score (HepG2 [9]),drug sensitivity score (Calu-3 [10]),cell viability (Caco-2 [11]; 1 nM) [%],cell viability (Caco-2 [11]; 10 nM) [%],cell viability (Caco-2 [11]; 100 nM) [%],cell viability (Caco-2 [11]; 1000 nM) [%],cell viability (Caco-2 [11]; 10000 nM) [%],cell viability (Vero E6 [12]; 1 nM) [%],cell viability (Vero E6 [12]; 10 nM) [%],cell viability (Vero E6 [12]; 100 nM) [%],cell viability (Vero E6 [12]; 1000 nM) [%],cell viability (Vero E6 [12]; 10000 nM) [%],cell viability (U2OS [13]; 1 nM) [%],cell viability (U2OS [13]; 10 nM) [%],cell viability (U2OS [13]; 100 nM) [%],cell viability (U2OS [13]; 1000 nM) [%],cell viability (U2OS [13]; 10000 nM) [%],cell viability (HepG2 [14]; 1 nM) [%],cell viability (HepG2 [14]; 10 nM) [%],cell viability (HepG2 [14]; 100 nM) [%],cell viability (HepG2 [14]; 1000 nM) [%],cell viability (HepG2 [14]; 10000 nM) [%],cell viability (Calu-3 [15]; 1 nM) [%],cell viability (Calu-3 [15]; 10 nM) [%],cell viability (Calu-3 [15]; 100 nM) [%],cell viability (Calu-3 [15]; 1000 nM) [%],cell viability (Calu-3 [15]; 10000 nM) [%]
NS(=O)(=O)c1cc(C(=O)O)cc(N2CCCC2)c1Oc1ccccc1 [piretanide],> 10,> 10,> 10,> 10,> 10,0,0,0,0,0,90.2,97.4,106,104,110,98.5,100,93.3,101,105,95.5,96.7,101,98.4,103,101,99.7,85.1,105,110,90,98.7,90.5,94.8,101
CC(C)(C)c1[nH]cnc1/C=c1\[nH]c(=O)/c(=C/c2ccccc2)[nH]c1=O [plinabulin],0.123,0.0633,0.0591,0.0668,0.0465,13.1,23.9,21.3,19.7,17.3,107,89.1,68.6,53.5,37.6,106,101,32.7,11.7,11.4,101,94.9,45.3,22.3,20.6,108,97.1,50.1,25.5,30.9,102,87.9,56.8,40.7,36.6
Nc1cccc2c1C(=O)N(C1CCC(=O)NC1=O)C2=O (stereo not given) [pomalidomide],> 10,> 10,> 10,> 10,> 10,0,0,0,0,0,86,85,103,95,98.3,93.5,97.1,89.2,99.4,103,99,97.3,104,96.1,98.4,104,104,98.5,101,111,106,103,103,105,90.9
COC(=O)C1=C(C)NC(C)=C(C(=O)OC/C=C/c2ccccc2)C1c1cccc([N+](=O)[O-])c1 (stereo not given) [pranidipine],> 10,> 10,> 10,> 10,> 10,0,0,0,0,0,101,80,97,91.5,92.6,93.8,103,83.1,95.1,96.9,98.1,93,99.6,95.5,94.8,97.1,102,107,103,95.1,103,101,99.7,91.7,91.8
CCC1(CC)C(=O)C=CNC1=O [pyrithyldione],> 10,> 10,> 10,> 10,> 10,0,0,0,0,0,100,93.1,93.4,92.3,102,93.5,107,97.5,102,93.6,98.2,95,97.8,95.1,96.6,91,92,94.9,104,95.1,93.1,94.1,99.5,99.9,96.7
CCC1NC(=O)c2cc(S(N)(=O)=O)c(Cl)cc2N1 (stereo not given) [quinethazone],> 10,> 10,> 10,> 10,> 10,0.7,0,0,0,0,94.3,108,96.4,97.4,82.9,106,86.7,103,100,98.6,91.9,100,93.3,101,105,110,103,103,92.6,93.1,101,94.8,97.5,91.2,95.1
NC(=O)c1cn(Cc2c(F)cccc2F)nn1 [rufinamide],> 10,> 10,> 10,> 10,> 10,0,0,0,0,0,111,97.4,93.3,97.1,104,101,101,101,97.9,103,99.6,100,101,98,104,109,102,94.1,101,97.4,101,97.7,99.1,101,100
O=C(CCCCCN1C(=O)c2cccc3cccc(c23)C1=O)NO [scriptaid],1.72,1.56,1.45,1.64,1.3,8.6,9.3,9.4,8.8,8,107,90.8,97.6,80,2.4,107,106,103,75.3,0.1,102,98.6,96.8,72.7,3.1,108,109,93,78.2,2.9,101,102,102,73.7,23.4
Clc1ccc(C(Cn2ccnc2)OCc2csc3c(Cl)cccc23)c(Cl)c1 (stereo not given) [sertaconazole],> 10,> 10,> 10,> 10,> 10,0.1,0,0,0,0,97,101,95,95.6,85.4,102,102,105,105,99.5,94.1,95.4,98.9,91.4,88.6,116,96.8,102,105,100,106,96.1,106,95.1,96.1
CC(C)(C)C(=O)Oc1ccc(S(=O)(=O)Nc2ccccc2C(=O)NCC(=O)O)cc1 [sivelestat],> 10,> 10,> 10,> 10,> 10,0,0,0,0,0,91,97,94.1,93.5,91.3,107,96.5,104,98.8,100,98.5,100,96.2,101,96.5,101,92.6,103,90,98.3,97.2,96.1,90.5,103,109
O=C1O[C@H]([C@@H](O)CO)C([O-])=C1O.[Na+] [sodium-ascorbate],> 10,> 10,> 10,> 10,> 10,0,0,0,0,0,91.7,93.1,98.9,95.2,102,97.5,107,97.2,100,106,97.9,89.9,101,97.7,103,96.8,104,92.1,110,111,100,102,97,98.5,102
O=C1NCN(c2ccccc2)C12CCN(CC1COc3ccccc3O1)CC2 (stereo not given) [spiroxatrine],> 10,> 10,> 10,> 10,> 10,0,0,0,0,0,95.2,101,101,100,98.2,103,99.8,104,97.9,109,106,98,99.3,94.8,99,87.5,94.3,87.6,104,103,98.3,99,92,100,104
OC[C@H]1O[C@H](O[C@]2(CCl)O[C@H](CCl)[C@@H](O)[C@@H]2O)[C@H](O)[C@@H](O)[C@H]1Cl [sucralose],> 10,> 10,> 10,> 10,> 10,0,0,0,0,0,96.8,94.1,99.1,95.9,101,100,102,101,106,92.7,102,100,103,96,103,99.1,97.7,96.8,96.2,97,99.6,91.8,98.5,99.1,95.5
Nc1ccc(S(=O)(=O)NC(=O)c2ccccc2)cc1 [sulfabenzamide],> 10,> 10,> 10,> 10,> 10,0,0,0,0,0,92.3,104,100,100,108,97.4,95.4,92.1,96.7,105,94.7,93.9,102,98.1,103,109,102,99,103,109,109,101,96.8,106,106
